In ChEMBL document CHEMBL1133206, “Antifungal rapamycin analogues with reduced immunosuppressive activity” (Bioorg Med Chem Lett, 2000):
Converted amounts (≈) assume the structure as drawn.

What was measured:
Candida albicans [1] = test: Compound was screened in vitro for antifungal activity against Candida albicans (CA 38247); format: functional
[2] = biological target: Peptidyl-prolyl cis-trans isomerase FKBP1A (Homo sapiens, UniProt P62942); test: The compound was tested for binding affinity to FK506 binding protein 12 using Rapamycin as control, with an ascomycin conjugate of alkaline phosphatase in a competition binding assay
Candida tropicalis = test: In vitro antifungal activity against Candida tropicalis (CT 750); format: functional
Candida albicans [3] = test: In vitro for antifungal activity against Candida albicans (CA 579a); format: functional
Candida albicans [4] = test: In vitro antifungal activity against Candida albicans (CA 10231); format: functional
Pichia kudriavzevii = test: In vitro antifungal activity against Candida krusei (CK 28838); format: functional
Candida albicans [5] = test: Compound was screened in vitro for antifungal activity against Candida albicans (CA 442); format: functional
Homo sapiens = organism: Homo sapiens; test: Inhibitory activity against human concanavalin-A proliferation assay; format: functional
Aspergillus niger [6] = test: In vitro antifungal activity at a minimum inhibitory concentration (~100 ug/mL) against Aspergillus niger; Not affected; format: functional; settings: Aspergillus niger; read-out: MIC
Candida albicans [7] = test: In vitro antifungal activity against Candida albicans (CA 38247); Weak; format: functional, organism-based
Candida albicans [8] = test: In vitro antifungal activity against Candida albicans (CA 442); Weak; format: functional, organism-based
Nakaseomyces glabratus = test: In vitro antifungal activity against Torulopsis glabrata (TG 15545); format: functional
Candida albicans [9] = test: In vitro antifungal activity against Candida albicans (CA 62376); Weak; format: functional, organism-based
Candida albicans [10] = test: In vitro antifungal activity against […] (CA 34140); Not affected.; format: functional
Candida albicans [11] = test: Compound was screened in vitro for antifungal activity against Candida albicans (CA 62376); format: functional
Candida albicans [12] = test: Compound was screened in vitro for antifungal activity at a minimum inhibitory concentration (~100 ug/mL) against […] (CA 34140); not affected; format: functional
Candida albicans [13] = test: Compound was screened in vitro for antifungal activity against Candida albicans (CA 62376); weak; format: functional, organism-based
Candida albicans [14] = test: Compound was screened in vitro for antifungal activity against Candida albicans (CA 442); weak; format: functional, organism-based
Aspergillus niger [15] = test: Compound was screened in vitro for antifungal activity at a minimum inhibitory concentration (~100 ug/mL) against Aspergillus niger; not affected; format: functional
Candida albicans [16] = test: Compound was screened in vitro for antifungal activity against Candida albicans (CA 38247); weak; format: functional, organism-based

Peptidyl-prolyl cis-trans isomerase FKBP1A, sequence (P62942 whole entry): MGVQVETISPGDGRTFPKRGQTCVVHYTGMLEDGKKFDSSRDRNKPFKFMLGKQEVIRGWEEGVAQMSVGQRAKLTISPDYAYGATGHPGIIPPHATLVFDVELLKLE

Row | MIC (Candida albicans [1]) | IC50 [2] | MIC (Candida tropicalis) | MIC (Candida albicans [3]) | MIC (Candida albicans [4]) | MIC (Pichia kudriavzevii) | MIC (Candida albicans [5]) | MIC (Aspergillus niger [6]) | MIC (Candida albicans [7]) | MIC (Candida albicans [8]) | MIC (Nakaseomyces glabratus) | MIC (Candida albicans [9]) | MIC (Candida albicans [10]) | MIC (Candida albicans [11]) | MIC (Candida albicans [12]) | MIC (Candida albicans [13]) | MIC (Candida albicans [14]) | MIC (Aspergillus niger [15]) | MIC (Candida albicans [16]) | Compound | IC50 (Homo sapiens)
1 | – | 2.1 nM | 12.5 µg/mL (≈ 12.1 µM) | 25 µg/mL (≈ 24.1 µM) | 12.5 µg/mL (≈ 12.1 µM) | 1.56 µg/mL (≈ 1.51 µM) | – | ~100 µg/mL (≈ 96.6 µM) | Weak | Weak | 1.56 µg/mL (≈ 1.51 µM) | Weak | ~100 µg/mL (≈ 96.6 µM) | – | – | – | – | – | – | CO[C@@H]1C[C@H](C[C@@H](C)[C@@H]2CC(=O)[C@H](C)/C=C(\C)[C@@H](O)[C@@H](OC)C(=O)[C@H](C)C[C@H](C)/C=C/C=C/C=C(\C)[C@@H](N(O)C(=O)Oc3ccccc3)C[C@@H]3CC[C@@H](C)[C@@](O)(O3)C(=O)C(=O)N3CCCC[C@H]3C(=O)O2)CC[C@H]1O | 1100 nM
2 | – | – | 1.56 µg/mL (≈ 1.63 µM) | 1.56 µg/mL (≈ 1.63 µM) | 1.56 µg/mL (≈ 1.63 µM) | 0.78 µg/mL (≈ 0.815 µM) | – | – | – | – | 0.78 µg/mL (≈ 0.815 µM) | – | – | – | ~100 µg/mL (≈ 104 µM) | Weak | Weak | ~100 µg/mL (≈ 104 µM) | Weak | COC(=O)N[C@@H]1C[C@@H]2CC[C@@H](C)[C@@](O)(O2)C(=O)C(=O)N2CCCC[C@H]2C(=O)O[C@H]([C@H](C)C[C@@H]2CC[C@@H](O)[C@H](OC)C2)CC(=O)[C@H](C)/C=C(\C)[C@@H](O)[C@@H](OC)C(=O)[C@H](C)C[C@H](C)/C=C/C=C/C=C/1C | 1380 nM
3 | – | 14 nM | 1.56 µg/mL (≈ 1.73 µM) | 3.12 µg/mL (≈ 3.47 µM) | 1.56 µg/mL (≈ 1.73 µM) | 0.78 µg/mL (≈ 0.867 µM) | – | ~100 µg/mL (≈ 111 µM) | Weak | Weak | 0.78 µg/mL (≈ 0.867 µM) | Weak | ~100 µg/mL (≈ 111 µM) | – | – | – | – | – | – | CO[C@@H]1C[C@H](C[C@@H](C)[C@@H]2CC(=O)[C@H](C)/C=C(\C)[C@@H](O)[C@@H](OC)C(=O)[C@H](C)C[C@H](C)/C=C/C=C/C=C(\C)[C@H](O)C[C@@H]3CC[C@@H](C)[C@@](O)(O3)C(=O)C(=O)N3CCCC[C@H]3C(=O)O2)CC[C@H]1O | 6.3 nM
4 | – | – | 3.12 µg/mL (≈ 3.21 µM) | 6.25 µg/mL (≈ 6.42 µM) | 3.12 µg/mL (≈ 3.21 µM) | 0.39 µg/mL (≈ 0.401 µM) | – | ~100 µg/mL (≈ 103 µM) | Weak | Weak | 0.78 µg/mL (≈ 0.801 µM) | Weak | ~100 µg/mL (≈ 103 µM) | – | – | – | – | – | – | COC(=O)N(O)[C@@H]1C[C@@H]2CC[C@@H](C)[C@@](O)(O2)C(=O)C(=O)N2CCCC[C@H]2C(=O)O[C@H]([C@H](C)C[C@@H]2CC[C@@H](O)[C@H](OC)C2)CC(=O)[C@H](C)/C=C(\C)[C@@H](O)[C@@H](OC)C(=O)[C@H](C)C[C@H](C)/C=C/C=C/C=C/1C | 16 nM

The next lines start with the molecule.

Row | Compound | MIC (Candida albicans [1]) | IC50 [2] | MIC (Candida tropicalis) | MIC (Candida albicans [3]) | MIC (Candida albicans [4]) | MIC (Pichia kudriavzevii) | MIC (Candida albicans [5]) | MIC (Aspergillus niger [6]) | MIC (Candida albicans [7]) | MIC (Candida albicans [8]) | MIC (Nakaseomyces glabratus) | MIC (Candida albicans [9]) | MIC (Candida albicans [10]) | MIC (Candida albicans [11]) | MIC (Candida albicans [12]) | MIC (Candida albicans [13]) | MIC (Candida albicans [14]) | MIC (Aspergillus niger [15]) | MIC (Candida albicans [16]) | IC50 (Homo sapiens)
5 | CO[C@H]1C[C@@H]2CC[C@@H](C)[C@@](O)(O2)C(=O)C(=O)N2CCCC[C@H]2C(=O)O[C@H]([C@H](C)C[C@@H]2CC[C@@H](OC(=O)N3CCOCC3)[C@H](OC)C2)CC(=O)[C@H](C)/C=C(\C)[C@@H](O)[C@@H](OC)C(=O)[C@H](C)C[C@H](C)CCCC/C=C/1C | > 100 µg/mL | > 1000 nM | > 100 µg/mL | > 100 µg/mL | > 100 µg/mL | > 100 µg/mL | > 100 µg/mL | – | – | – | – | – | – | – | – | – | – | – | – | –
6 | CO[C@H]1C[C@@H]2CC[C@@H](C)[C@@](O)(O2)C(=O)C(=O)N2CCCC[C@H]2C(=O)O[C@H]([C@H](C)C[C@@H]2CC[C@@H](OC(=O)N(C)OC)[C@H](OC)C2)CC(=O)[C@H](C)/C=C(\C)[C@@H](O)[C@@H](OC)C(=O)[C@H](C)C[C@H](C)CCCC/C=C/1C | – | > 1000 nM | > 100 µg/mL | > 100 µg/mL | 50 µg/mL (≈ 49.7 µM) | > 100 µg/mL | – | – | – | – | – | – | – | – | – | – | – | – | – | 2470 nM
7 | CO[C@H]1C[C@@H]2CC[C@@H](C)[C@@](O)(O2)C(=O)C(=O)N2CCCC[C@H]2C(=O)O[C@H]([C@H](C)C[C@@H]2CCC(O)[C@H](OC)C2)CC(=O)[C@H](C)/C=C(\C)[C@@H](O)[C@@H](OC)C(=O)[C@H](C)C[C@H](C)CCCC/C=C/1C (single isomer, unassigned; 3) | 1.56 µg/mL (≈ 1.7 µM) | – | 1.56 µg/mL (≈ 1.7 µM) | 1.56 µg/mL (≈ 1.7 µM) | 1.56 µg/mL (≈ 1.7 µM) | 0.78 µg/mL (≈ 0.849 µM) | 1.56 µg/mL (≈ 1.7 µM) | – | – | – | – | – | – | 0.78 µg/mL (≈ 0.849 µM) | – | – | – | – | – | 3400 nM
8 | CO[C@H]1C[C@@H]2CC[C@@H](C)[C@@](O)(O2)C(=O)C(=O)N2CCCC[C@H]2C(=O)O[C@H]([C@H](C)C[C@@H]2CC[C@H](n3cnnn3)[C@H](OC)C2)CC(=O)[C@H](C)/C=C(\C)[C@@H](O)[C@@H](OC)C(=O)[C@H](C)C[C@H](C)CCCC/C=C/1C | > 100 µg/mL | – | > 100 µg/mL | > 100 µg/mL | > 100 µg/mL | > 100 µg/mL | > 100 µg/mL | – | – | – | – | – | – | > 100 µg/mL | – | – | – | – | – | –
